Test results published in US20230085307A1, “PYRIDAZINONE COMPOUND AND HERBICIDE” (NISSAN CHEMICAL CORPORATION, priority 2019, published 2023).

Tests used:
wild oat [1] = assay: Test Example 4: herbicidal effect by soil treatment (Table 19, symbol I); format: in vivo, wild oat (Avena fatua)
In short: (§1)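 Soil-surface application: an emulsion agent diluted with water to the predetermined dose is sprayed uniformly over seeds lying under roughly 1.5 cm of sterilized diluvial soil. Boxes stay in a greenhouse at 25° C. to 30° C. Three weeks later, each species is graded on previously defined criteria.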

velvetleaf [2] = assay: Test Example 4: herbicidal effect by soil treatment (Table 19, symbol M); format: in vivo, velvetleaf (Abutilon theophrasti)
In short: as §1

Italian ryegrass [3] = assay: Test Example 5: herbicidal effect by foliage application, plastic box (Table 20, symbol K); format: in vivo, Italian ryegrass (Lolium multiflorum); conditions: foliage application
In short: (§2)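 Sow seeds spot-wise in sterilized diluvial soil; cover with ~1.5 cm soil. Grow 14 days in greenhouse, 25° C. to 30° C. Spray foliage with emulsion diluted to predetermined amount. Rate effect after 3 weeks.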

windgrass [4] = assay: Test Example 5: herbicidal effect by foliage application, plastic box (Table 20, symbol L); format: in vivo, windgrass (Apera spica-venti); conditions: foliage application
In short: as §2

green foxtail [5] = assay: Test Example 4: herbicidal effect by soil treatment (Table 19, symbol G); format: in vivo, green foxtail (Setaria viridis)
In short: as §1

wild oat [6] = assay: Test Example 5: herbicidal effect by foliage application, plastic box (Table 20, symbol I); format: in vivo, wild oat (Avena fatua); conditions: foliage application
In short: as §2

Chinese sprangletop = assay: Test Example 3: herbicidal effect by foliage application, Wagner pot (Table 18, symbol D); format: in vivo, chinese sprangletop (Leptochloa chinensis); conditions: 320 g/ha
In short: (§3)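 Plants were sown in alluvial soil held under 0.1–0.5 cm standing water and grown 14 days in a greenhouse at 25–30 °C. An emulsifiable formulation, water-diluted to the set dose, was then sprayed onto the foliage, and effects were scored three weeks later using previously defined criteria.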

southern crabgrass [7] = assay: Test Example 4: herbicidal effect by soil treatment (Table 19, symbol F); format: in vivo, southern crabgrass (Digitaria ciliaris)
In short: as §1

rice flat sedge = assay: Test Example 3: herbicidal effect by foliage application, Wagner pot (Table 18, symbol E); format: in vivo, rice flat sedge (Cyperus iria); conditions: 320 g/ha
In short: as §3

blackgrass [8] = assay: Test Example 5: herbicidal effect by foliage application, plastic box (Table 20, symbol J); format: in vivo, blackgrass (Alopecurus myosuroides); conditions: foliage application
In short: as §2

chickweed [9] = assay: Test Example 5: herbicidal effect by foliage application, plastic box (Table 20, symbol P); format: in vivo, common chickweed (Stellaria media); conditions: foliage application
In short: as §2

barnyard grass [10] = assay: Test Example 4: herbicidal effect by soil treatment (Table 19, symbol H); format: in vivo, barnyard grass (Echinochloa crus-galli)
In short: as §1

lambsquarters [11] = assay: Test Example 5: herbicidal effect by foliage application, plastic box (Table 20, symbol O); format: in vivo, lambsquarters (Chenopodium album); conditions: foliage application
In short: as §2

barnyard grass [12] = assay: Test Example 5: herbicidal effect by foliage application, plastic box (Table 20, symbol H); format: in vivo, barnyard grass (Echinochloa crus-galli); conditions: foliage application
In short: as §2

barnyard grass [13] = assay: Test Example 3: herbicidal effect by foliage application, Wagner pot (Table 18, symbol H); format: in vivo, barnyard grass (Echinochloa crus-galli); conditions: 320 g/ha
In short: as §3

velvetleaf [14] = assay: Test Example 5: herbicidal effect by foliage application, plastic box (Table 20, symbol M); format: in vivo, velvetleaf (Abutilon theophrasti); conditions: foliage application
In short: as §2

persian speedwell [15] = assay: Test Example 4: herbicidal effect by soil treatment (Table 19, symbol R); format: in vivo, Persian speedwell (Veronica persica)
In short: as §1

Italian ryegrass [16] = assay: Test Example 4: herbicidal effect by soil treatment (Table 19, symbol K); format: in vivo, Italian ryegrass (Lolium multiflorum)
In short: as §1

persian speedwell [17] = assay: Test Example 5: herbicidal effect by foliage application, plastic box (Table 20, symbol R); format: in vivo, Persian speedwell (Veronica persica); conditions: foliage application
In short: as §2

southern crabgrass [18] = assay: Test Example 5: herbicidal effect by foliage application, plastic box (Table 20, symbol F); format: in vivo, southern crabgrass (Digitaria ciliaris); conditions: foliage application
In short: as §2

lambsquarters [19] = assay: Test Example 4: herbicidal effect by soil treatment (Table 19, symbol O); format: in vivo, lambsquarters (Chenopodium album)
In short: as §1

blackgrass [20] = assay: Test Example 4: herbicidal effect by soil treatment (Table 19, symbol J); format: in vivo, blackgrass (Alopecurus myosuroides)
In short: as §1

redroot pigweed [21] = assay: Test Example 4: herbicidal effect by soil treatment (Table 19, symbol N); format: in vivo, redroot pigweed (Amaranthus retroflexus)
In short: as §1

windgrass [22] = assay: Test Example 4: herbicidal effect by soil treatment (Table 19, symbol L); format: in vivo, windgrass (Apera spica-venti)
In short: as §1

green foxtail [23] = assay: Test Example 5: herbicidal effect by foliage application, plastic box (Table 20, symbol G); format: in vivo, green foxtail (Setaria viridis); conditions: foliage application
In short: as §2

redroot pigweed [24] = assay: Test Example 5: herbicidal effect by foliage application, plastic box (Table 20, symbol N); format: in vivo, redroot pigweed (Amaranthus retroflexus); conditions: foliage application
In short: as §2

chickweed [25] = assay: Test Example 4: herbicidal effect by soil treatment (Table 19, symbol P); format: in vivo, common chickweed (Stellaria media)
In short: as §1

[26] = AAH 320 g/ha, three weeks after application
[27] = 320 g/ha, evaluated three weeks after application

SMILES: CCCC(=O)Oc1c(OC)nn(C)c(=O)c1-c1c(-c2cc(Cl)ccc2OC)sc2ccccc12 [1-179]
- I: wild oat, herbicidal effect rating (wild oat [1]; AAH 320 g/ha): 0 (Herbicidal rate of 5% or less (almost no effect))
- M: velvetleaf, herbicidal effect rating (velvetleaf [2]; AAH 320 g/ha): 0 (Herbicidal rate of 5% or less (almost no effect))
- K: Italian ryegrass, herbicidal effect (Italian ryegrass [3]; [26]): 0 (Herbicidal rate of 5% or less (almost no effect))
- L: windgrass, herbicidal effect (windgrass [4]; [26]): 1 (Herbicidal rate of 5% or more and less than 20%)
- G: green foxtail, herbicidal effect rating (green foxtail [5]; AAH 320 g/ha): 0 (Herbicidal rate of 5% or less (almost no effect))
- I: wild oat, herbicidal effect (wild oat [6]; [26]): 3 (Herbicidal rate of 40% or more and less than 70%)
- herbicidal effect on D (Chinese sprangletop), rating 0-5 (Chinese sprangletop): 0 (Herbicidal rate of 5% or less (almost no effect))
- F: southern crabgrass, herbicidal effect rating (southern crabgrass [7]; AAH 320 g/ha): 0 (Herbicidal rate of 5% or less (almost no effect))
- herbicidal effect on E (rice flat sedge), rating 0-5 (rice flat sedge): 3 (Herbicidal rate of 40% or more and less than 70%)
- J: blackgrass, herbicidal effect (blackgrass [8]; [26]): 0 (Herbicidal rate of 5% or less (almost no effect))
- P: chickweed, herbicidal effect (chickweed [9]; [26]): 4 (Herbicidal rate of 70% or more and less than 90%)
- H: barnyard grass, herbicidal effect rating (barnyard grass [10]; AAH 320 g/ha): 0 (Herbicidal rate of 5% or less (almost no effect))
- O: lambsquarters, herbicidal effect (lambsquarters [11]; [26]): 3 (Herbicidal rate of 40% or more and less than 70%)
- H: barnyard grass, herbicidal effect (barnyard grass [12]; [26]): 3 (Herbicidal rate of 40% or more and less than 70%)
- herbicidal effect on H (barnyard grass), rating 0-5 (barnyard grass [13]): 4 (Herbicidal rate of 70% or more and less than 90%)
- M: velvetleaf, herbicidal effect (velvetleaf [14]; [26]): 2 (Herbicidal rate of 20% or more and less than 40%)
- R: persian speedwell, herbicidal effect rating (persian speedwell [15]; AAH 320 g/ha): 4 (Herbicidal rate of 70% or more and less than 90%)
- K: Italian ryegrass, herbicidal effect rating (Italian ryegrass [16]; AAH 320 g/ha): 0 (Herbicidal rate of 5% or less (almost no effect))
- R: persian speedwell, herbicidal effect (persian speedwell [17]; [26]): 4 (Herbicidal rate of 70% or more and less than 90%)
- F: southern crabgrass, herbicidal effect (southern crabgrass [18]; [26]): 3 (Herbicidal rate of 40% or more and less than 70%)
- O: lambsquarters, herbicidal effect rating (lambsquarters [19]; AAH 320 g/ha): 0 (Herbicidal rate of 5% or less (almost no effect))
- J: blackgrass, herbicidal effect rating (blackgrass [20]; AAH 320 g/ha): 0 (Herbicidal rate of 5% or less (almost no effect))
- N: redroot pigweed, herbicidal effect rating (redroot pigweed [21]; AAH 320 g/ha): 3 (Herbicidal rate of 40% or more and less than 70%)
- L: windgrass, herbicidal effect rating (windgrass [22]; AAH 320 g/ha): 0 (Herbicidal rate of 5% or less (almost no effect))
- G: green foxtail, herbicidal effect (green foxtail [23]; [26]): 3 (Herbicidal rate of 40% or more and less than 70%)
- N: redroot pigweed, herbicidal effect (redroot pigweed [24]; [26]): 4 (Herbicidal rate of 70% or more and less than 90%)
- P: chickweed, herbicidal effect rating (chickweed [25]; AAH 320 g/ha): 4 (Herbicidal rate of 70% or more and less than 90%)

SMILES: Cc1nn(C)c(=O)c(-c2c(-c3ccc(OCC#N)cc3)sc3ccc(F)cc23)c1O [2-066]
- herbicidal effect rating, I: wild oat (wild oat [1]; 320 g/ha): 0 (Herbicidal rate of 5% or less (almost no effect))
- herbicidal effect rating, M: velvetleaf (velvetleaf [2]; 320 g/ha): 0 (Herbicidal rate of 5% or less (almost no effect))
- herbicidal effect on K: Italian ryegrass (Italian ryegrass [3]; [27]): 1 (Herbicidal rate of 5% or more and less than 20%)
- herbicidal effect on L: windgrass (windgrass [4]; [27]): 0 (Herbicidal rate of 5% or less (almost no effect))
- herbicidal effect rating, G: green foxtail (green foxtail [5]; 320 g/ha): 0 (Herbicidal rate of 5% or less (almost no effect))
- herbicidal effect on I: wild oat (wild oat [6]; [27]): 0 (Herbicidal rate of 5% or less (almost no effect))
- herbicidal effect on D (Chinese sprangletop), rating 0-5 (Chinese sprangletop): 3 (Herbicidal rate of 40% or more and less than 70%)
- herbicidal effect rating, F: southern crabgrass (southern crabgrass [7]; 320 g/ha): 0 (Herbicidal rate of 5% or less (almost no effect))
- herbicidal effect on E (rice flat sedge), rating 0-5 (rice flat sedge): 1 (Herbicidal rate of 5% or more and less than 20%)
- herbicidal effect on J: blackgrass (blackgrass [8]; [27]): 0 (Herbicidal rate of 5% or less (almost no effect))
- herbicidal effect on P: chickweed (chickweed [9]; [27]): 5 (Herbicidal rate of 90% or more (almost completely withered))
- herbicidal effect rating, H: barnyard grass (barnyard grass [10]; 320 g/ha): 0 (Herbicidal rate of 5% or less (almost no effect))
- herbicidal effect on O: lambsquarters (lambsquarters [11]; [27]): 4 (Herbicidal rate of 70% or more and less than 90%)
- herbicidal effect on H: barnyard grass (barnyard grass [12]; [27]): 2 (Herbicidal rate of 20% or more and less than 40%)
- herbicidal effect on H (barnyard grass), rating 0-5 (barnyard grass [13]): 4 (Herbicidal rate of 70% or more and less than 90%)
- herbicidal effect on M: velvetleaf (velvetleaf [14]; [27]): 3 (Herbicidal rate of 40% or more and less than 70%)
- herbicidal effect rating, R: persian speedwell (persian speedwell [15]; 320 g/ha): 4 (Herbicidal rate of 70% or more and less than 90%)
- herbicidal effect rating, K: Italian ryegrass (Italian ryegrass [16]; 320 g/ha): 0 (Herbicidal rate of 5% or less (almost no effect))
- herbicidal effect on R: persian speedwell (persian speedwell [17]; [27]): 5 (Herbicidal rate of 90% or more (almost completely withered))
- herbicidal effect on F: southern crabgrass (southern crabgrass [18]; [27]): 3 (Herbicidal rate of 40% or more and less than 70%)
- herbicidal effect rating, O: lambsquarters (lambsquarters [19]; 320 g/ha): 0 (Herbicidal rate of 5% or less (almost no effect))
- herbicidal effect rating, J: blackgrass (blackgrass [20]; 320 g/ha): 0 (Herbicidal rate of 5% or less (almost no effect))
- herbicidal effect rating, N: redroot pigweed (redroot pigweed [21]; 320 g/ha): 0 (Herbicidal rate of 5% or less (almost no effect))
- herbicidal effect rating, L: windgrass (windgrass [22]; 320 g/ha): 0 (Herbicidal rate of 5% or less (almost no effect))
- herbicidal effect on G: green foxtail (green foxtail [23]; [27]): 4 (Herbicidal rate of 70% or more and less than 90%)
- herbicidal effect on N: redroot pigweed (redroot pigweed [24]; [27]): 5 (Herbicidal rate of 90% or more (almost completely withered))
- herbicidal effect rating, P: chickweed (chickweed [25]; 320 g/ha): 4 (Herbicidal rate of 70% or more and less than 90%)
